Measured values published in PubChem BioAssay AID256 (DTP/NCI, 2004).
Several values for one entry are separate records, joined by “and”; a condition that tells them apart may be missing. Equal values may be shown once. Toxic doses and inconclusive results are not listed. Rule for the calls: active = survival T/C of 150% or more; inactive = T/C below 125% in these data.

System: CD2F1 mice, L1210 leukemia ip, survival T/C
Assay: NCI In Vivo Anticancer Drug Screen. Data for tumor model L1210 Leukemia (intraperitoneal) in CD2F1 (CDF1) mice
Details: higher = longer survival
Summary of the method: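 Read-out first: treated-group measurement over vehicle-control measurement, expressed as a ratio. Animals bore a transplanted tumor line and were dosed with compound or vehicle.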

[1] = endpoint: mean survival time, dose: 50.0 mg/kg/injection, schedule: Q01DX009 (ip), vehicle: saline with Tween-80
[2] = endpoint: mean survival time, dose: 25.0 mg/kg/injection, schedule: Q04DX002 (ip), vehicle: saline with Tween-80
[3] = endpoint: mean survival time, dose: 50.0 mg/kg/injection, schedule: Q04DX002 (ip), vehicle: saline with Tween-80
[4] = endpoint: mean survival time, dose: 100.0 mg/kg/injection, schedule: Q04DX002 (ip), vehicle: saline with Tween-80
[5] = endpoint: mean survival time, dose: 400.0 mg/kg/injection, schedule: Q04DX002 (ip), vehicle: saline with Tween-80
[6] = endpoint: mean survival time, dose: 100.0 mg/kg/injection, schedule: Q01DX009 (ip), vehicle: saline with Tween-80
[7] = endpoint: mean survival time, dose: 200.0 mg/kg/injection, schedule: Q01DX009 (ip), vehicle: saline with Tween-80
[8] = endpoint: mean survival time, dose: 400.0 mg/kg/injection, schedule: Q01DX009 (ip), vehicle: saline with Tween-80
[9] = endpoint: mean survival time, dose: 100.0 mg/kg/injection, schedule: Q04DX003 (ip), vehicle: saline with Tween-80
[10] = endpoint: mean survival time, dose: 200.0 mg/kg/injection, schedule: Q04DX003 (ip), vehicle: saline with Tween-80
[11] = endpoint: mean survival time, dose: 400.0 mg/kg/injection, schedule: Q04DX003 (ip), vehicle: saline with Tween-80
[12] = endpoint: mean survival time, dose: 100.0 mg/kg/injection, schedule: Q01DX001 (ip), vehicle: saline
[13] = endpoint: mean survival time, dose: 200.0 mg/kg/injection, schedule: Q01DX001 (ip), vehicle: saline
[14] = endpoint: mean survival time, dose: 400.0 mg/kg/injection, schedule: Q01DX001 (ip), vehicle: saline
[15] = endpoint: mean survival time, dose: 200.0 mg/kg/injection, schedule: Q04DX002 (ip), vehicle: saline with Tween-80

Measured: T/C

N#CC(c1cccnc1)N1CCOCC1 (centres undefined)
inactive: endpoint: mean survival time, dose: 25.0 mg/kg/injection, schedule: Q01DX009 (ip), vehicle: saline with Tween-80 98 % of control | [1] 103 % of control

CCOc1ccc(OCC)c(NC(=O)Nc2ccccc2C)c1
inactive: [2] 88 % of control | [3] 88 % of control | [4] 90 % of control | [5] 90 % of control

CCC(C)C(C(=O)OCCN(C)C)c1ccccc1 (centres undefined)
inactive: [1] 100 % of control | [6] 97 % of control | [7] 103 % of control

CC(=O)OC1CCC2(C)C(CC=C3C2CCC2(C)C3CCC2C(C)CCCC(C)C)C1 (centres undefined)
inactive: [6] 89 % of control | [7] 89 % of control | [8] 91 % of control

CCCCCCCCCCCCCCCCCCOCCOCCOCCOCCO
inactive: [2] 91 % of control | [3] 100 % of control | [4] 94 % of control | [5] 94 % of control

Cc1c(Cl)ccc(OCC2=NCCN2)c1C
inactive: [2] 109 % of control | [3] 97 % of control | [4] 100 % of control and 102 % of control

COc1cc(OC)c(NC(=O)Nc2cccc(C(=O)O)c2)cc1Cl
inactive: [1] 88 % of control | [6] 88 % of control | [7] 92 % of control

CCOc1nc(OCC)nc(-c2cccn2-c2ccccc2)n1
inactive: [6] 95 % of control | [9] 106 % of control | [7] 87 % of control | [10] 100 % of control | [8] 93 % of control | [11] 98 % of control

CC1(C)C(C(=O)/C=C/c2ccccc2)C1[N+](=O)[O-] (centres undefined)
inactive: endpoint: mean survival time, dose: 100.0 mg/kg/injection, schedule: Q04DX002 (ip), vehicle: other 97 % of control | endpoint: mean survival time, dose: 200.0 mg/kg/injection, schedule: Q04DX002 (ip), vehicle: other 97 % of control | endpoint: mean survival time, dose: 400.0 mg/kg/injection, schedule: Q04DX002 (ip), vehicle: other 97 % of control

CC(=O)N(C)c1ccc(Nc2cc(C)[nH]c3ccc4ncnc4c23)cc1
inactive: endpoint: mean survival time, dose: 6.25 mg/kg/injection, schedule: Q01DX009 (ip), vehicle: saline 114 % of control and 110 % of control | endpoint: mean survival time, dose: 12.5 mg/kg/injection, schedule: Q01DX009 (ip), vehicle: saline 120 % of control and 110 % of control | endpoint: mean survival time, dose: 25.0 mg/kg/injection, schedule: Q01DX009 (ip), vehicle: saline 118 % of control and 121 % of control | endpoint: mean survival time, dose: 50.0 mg/kg/injection, schedule: Q01DX009 (ip), vehicle: saline 119 % of control | endpoint: mean survival time, dose: 100.0 mg/kg/injection, schedule: Q01DX009 (ip), vehicle: saline 113 % of control and 100 % of control
active: endpoint: median survival time, dose: 67.0 mg/kg/injection, schedule: Q01DX005 (ip), vehicle: saline 156 % of control and 164 % of control | endpoint: median survival time, dose: 100.0 mg/kg/injection, schedule: Q01DX005 (ip), vehicle: saline 160 % of control

CCOC(=O)/C(C#N)=C1/C=CCCC1
inactive: endpoint: mean survival time, dose: 75.0 mg/kg/injection, schedule: Q01DX001 (ip), vehicle: saline 97 % of control | endpoint: mean survival time, dose: 150.0 mg/kg/injection, schedule: Q01DX001 (ip), vehicle: saline 104 % of control | endpoint: mean survival time, dose: 300.0 mg/kg/injection, schedule: Q01DX001 (ip), vehicle: saline 97 % of control

CCOC(=O)C(C)C(O)(c1ccccc1)c1ccccc1 (centres undefined)
inactive: endpoint: mean survival time, dose: 100.0 mg/kg/injection, schedule: Q04DX003 (ip), vehicle: Klucel (hydroxypropylcellulose) (HPC) 95 % of control | endpoint: mean survival time, dose: 200.0 mg/kg/injection, schedule: Q04DX003 (ip), vehicle: Klucel (hydroxypropylcellulose) (HPC) 101 % of control | endpoint: mean survival time, dose: 400.0 mg/kg/injection, schedule: Q04DX003 (ip), vehicle: Klucel (hydroxypropylcellulose) (HPC) 95 % of control

O=S1(=O)C2CCC(C2)C1Cl (centres undefined)
inactive: [9] 88 % of control

O=c1ccn(C2OC(CO)C(O)C2O)c(C2SCCCS2)n1 (centres undefined)
inactive: endpoint: mean survival time, dose: 9.38 mg/kg/injection, schedule: Q01DX005 (ip), vehicle: water 90 % of control | endpoint: mean survival time, dose: 18.75 mg/kg/injection, schedule: Q01DX005 (ip), vehicle: water 93 % of control | endpoint: mean survival time, dose: 37.5 mg/kg/injection, schedule: Q01DX005 (ip), vehicle: water 93 % of control | endpoint: mean survival time, dose: 75.0 mg/kg/injection, schedule: Q01DX005 (ip), vehicle: water 96 % of control | endpoint: mean survival time, dose: 150.0 mg/kg/injection, schedule: Q01DX005 (ip), vehicle: water 96 % of control

CC1CC(NC(=S)NC(=O)c2ccccc2Cl)CC(C)(C)C1 (centres undefined)
inactive: [6] 86 % of control | [7] 86 % of control | [8] 86 % of control

ClC(Cl)c1ccccc1C(Cl)(Cl)Cl
inactive: [12] 104 % of control | [6] 99 % of control | [9] 94 % of control | [13] 98 % of control | [7] 101 % of control | [10] 94 % of control | [14] 98 % of control | [8] 94 % of control | [11] 88 % of control

CCOC(=O)CCOc1ccc(Cl)cc1
inactive: [6] 95 % of control | [9] 89 % of control | [7] 97 % of control | [10] 93 % of control | [8] 104 % of control | [11] 91 % of control

OC1C(I)CC(Cl)C2CCC[N-]C12.OC1C(I)CC(Cl)C2CCC[N-]C12.[Cu+2] (centres undefined)
inactive: [4] 96 % of control | [15] 92 % of control | [5] 88 % of control

CC[C@]12CN3CCc4c([nH]c5ccccc45)[C@@](C(=O)OC)(c4cc5c(cc4OC)N(C)[C@H]4[C@@](O)(C(=O)OC)[C@H](OC(C)=O)[C@]6(CC)C=CCN7CC[C@]54[C@@H]76)CC(C3)[C@H]1O2 (some centres undefined)
inactive: endpoint: mean survival time, dose: 1.5 mg/kg/injection, schedule: Q01DX009 (ip), vehicle: Klucel (hydroxypropylcellulose) (HPC) 106 % of control | endpoint: mean survival time, dose: 3.0 mg/kg/injection, schedule: Q01DX009 (ip), vehicle: Klucel (hydroxypropylcellulose) (HPC) 108 % of control | endpoint: mean survival time, dose: 6.0 mg/kg/injection, schedule: Q01DX009 (ip), vehicle: Klucel (hydroxypropylcellulose) (HPC) 110 % of control | endpoint: mean survival time, dose: 6.25 mg/kg/injection, schedule: Q04DX003 (ip), vehicle: saline 111 % of control | endpoint: mean survival time, dose: 12.0 mg/kg/injection, schedule: Q01DX009 (ip), vehicle: Klucel (hydroxypropylcellulose) (HPC) 112 % of control | endpoint: mean survival time, dose: 12.5 mg/kg/injection, schedule: Q04DX003 (ip), vehicle: saline 120 % of control | endpoint: median survival time, dose: 1.0 mg/kg/injection, schedule: Q03HX008 (ip), vehicle: saline 100 % of control | endpoint: median survival time, dose: 1.0 mg/kg/injection, schedule: Q03HX016 (ip), vehicle: saline 100 % of control | endpoint: median survival time, dose: 1.0 mg/kg/injection, schedule: Q03HX024 (ip), vehicle: saline 100 % of control | endpoint: median survival time, dose: 2.0 mg/kg/injection, schedule: Q03HX008 (ip), vehicle: saline 110 % of control | endpoint: median survival time, dose: 2.0 mg/kg/injection, schedule: Q03HX016 (ip), vehicle: saline 120 % of control | endpoint: median survival time, dose: 2.0 mg/kg/injection, schedule: Q03HX024 (ip), vehicle: saline 120 % of control | endpoint: median survival time, dose: 4.0 mg/kg/injection, schedule: Q01DX009 (ip), vehicle: saline 110 % of control | endpoint: median survival time, dose: 4.0 mg/kg/injection, schedule: Q04DX003 (ip), vehicle: saline 100 % of control | endpoint: median survival time, dose: 8.0 mg/kg/injection, schedule: Q01DX001 (ip), vehicle: saline 100 % of control | endpoint: median survival time, dose: 8.0 mg/kg/injection, schedule: Q04DX003 (ip), vehicle: saline 105 % of control | endpoint: median survival time, dose: 8.0 mg/kg/injection, schedule: Q08DX002 (ip), vehicle: saline 115 % of control | endpoint: median survival time, dose: 16.0 mg/kg/injection, schedule: Q01DX001 (ip), vehicle: saline 110 % of control | endpoint: median survival time, dose: 16.0 mg/kg/injection, schedule: Q01DX009 (ip), vehicle: saline 100 % of control | endpoint: median survival time, dose: 16.0 mg/kg/injection, schedule: Q08DX002 (ip), vehicle: saline 110 % of control | endpoint: median survival time, dose: 32.0 mg/kg/injection, schedule: Q01DX001 (ip), vehicle: saline 110 % of control

COc1cc[c-]cc1.[C-]#[O+].[C-]#[O+].[Fe+6].[c-]1[c-][c-][cH-][c-]1
inactive: [3] 102 % of control | [4] 102 % of control | [15] 97 % of control

CCCCCCCCCCCCCCCCCC[N+]1(C)CCC1C (centres undefined)
inactive: endpoint: mean survival time, dose: 1.56 mg/kg/injection, schedule: Q01DX001 (ip), vehicle: saline 101 % of control | endpoint: mean survival time, dose: 3.12 mg/kg/injection, schedule: Q01DX001 (ip), vehicle: saline 102 % of control

O=c1nc2n(CCO)c3ccccc3cc-2c(=O)[nH]1
inactive: [12] 95 % of control | [13] 95 % of control | [14] 89 % of control

NCCCCC(N)C(=O)O (centres undefined)
inactive: endpoint: median survival time, dose: 3.13 mg/kg/injection, schedule: Q04DX002 (ip), vehicle: saline 100 % of control | endpoint: median survival time, dose: 6.25 mg/kg/injection, schedule: Q04DX002 (ip), vehicle: saline 94 % of control | endpoint: median survival time, dose: 25.0 mg/kg/injection, schedule: Q04DX002 (ip), vehicle: saline 105 % of control | endpoint: median survival time, dose: 50.0 mg/kg/injection, schedule: Q04DX002 (ip), vehicle: saline 117 % of control
